A short description of data set [1]: stability testing in intestinal homogenate. As to conditions: rat. Format: in vitro ADME. The protocol: (§1) Stability testing of the various compounds was performed in buffer, intestinal perfusate, and an intestinal homogenate preparation to assess the potential oral availability of these compounds. Initial studies prepared the tissue for stability studies. The buffer used in stability testing is 10 mM MES (pH 6.5) containing 135 mM NaCl, and 5 mM KCl. To collect intestinal perfusate from rats, male Sprague Dawley rats, 8 to 10 weeks old, weighing 250 to 350 g were fasted 15 to 18 hours with water given ad libitum. Anesthesia was administered by intramuscular injection of pentobarbital/ketamine (40 mg/kg and 80 mg/kg, respectively). The rats were placed on a warming pad under a surgical lamp to maintain body temperature and jejunal intestinal segments were exposed through a midline, abdominal incision. Approximately 20 cm segment of the jejunum (2 to 4 cm distal to the ligament of Treitz) was cannulated and the intestinal segments were perfused with 10 mM MES (pH 6.5) containing 135 mM NaCl, and 5 mM KCl at a flow-rate of 0.5 ml/min at 37° C. using a constant infusion pump (Harvard Apparatus, South Natick, Mass.). The collected perfusate was stored at −80° C. until use for ex vivo stability studies. After collection, the perfused intestinal segments were flushed with ice-cold 0.15 M KCl solution and the animal was euthanized and the jejunal intestinal segment detached. The inner intestinal tissue layers are scraped out and homogenized in MES buffer (pH 6.5) in a ratio of 1 part of intestinal tissue to 5 parts buffer. Total protein content of the perfusate and the homogenate were determined using a Biorad protein assay kit. The intestinal homogenate samples were used immediately or rapidly frozen at −80° C. until stability analysis.
(§2) The actual stability testing protocol is as follows: A 0.1 ml aliquot of the synthetic peptide solution (1 mg/ml) was added to 0.9 ml of MES buffer, pH 6.5, intestinal perfusate, or intestinal homogenate at 37° C. Samples were mixed by vortexing and 100 microliter aliquots were removed over a 60 to 90 minute period for analysis of breakdown products. The 100 microliter sample aliquots were diluted 10 fold with water and subjected to solid phase extraction using a Waters Oasis HLB column. Briefly, the columns were preconditioned by passing 1 ml of MeOH and 1 ml of water over the column, and 1 ml of sample was added to the column. The column was washed with 5% methanol:95% water solution to remove proteins and salts, then eluted with 1 ml of 100% methanol. The methanol was removed by vacuum, and the sample was reconstituted in mobile phase for LC/MS/MS analysis.
(§3) LC/MS/MS analysis was performed on a HP1100 HPLC (Hewlett Packard) interfaced with a Quattro II MS/MS detector (Waters/Micromass). For the HPLC separation, a 10 μL aliquot of sample in a mobile phase consisting of an equal volume mixture of acetonitrile/water containing 0.5% formic acid was injected onto a 150 mm×2.2 mm, 5 μm C8 column (Higgins Analytical Inc) and developed at a flow rate of 0.2 ml/min for 5 minutes. The MS detector was used in single ion recording mode at a cone voltage of 50 Volts.

The nature of data set [2]: stability testing in intestinal perfusate. As to conditions: male, Sprague Dawley, rat, intestinal (jejunal) perfusate, pH 6.5, rat. In kind it is in vitro ADME. The protocol: as §1, §2, §3
Data set [3] in a line: stability testing in MES buffer (pH 6.5). In kind it is physicochemical. As to conditions: 37° C., read-out: t1/2 (min) MES Buffer (pH 6.5). The protocol:
as §1
The actual stability testing protocol is as follows: A 0.1 ml aliquot of the synthetic peptide solution (1 mg/ml) was added to 0.9 ml of MES buffer, pH 6.5, intestinal perfusate, or intestinal homogenate at 37° C. Samples were mixed by vortexing and 100 microliter aliquots were removed over a 60 to 90 minute period for analysis of breakdown products. […]

For data set [4], the system named is normal human lung fibroblasts (NHLF). Kind of data set: α-thrombin-induced calcium mobilization in normal human lung fibroblasts. Format: cell-based. The conditions noted are these: 2 nM alpha thrombin. The protocol:
The second assay developed to assess peptides from the combinatorial libraries uses inhibition of α-thrombin-induced calcium mobilization in fibroblasts. Normal human lung fibroblasts (NHLF) were purchased from Clonetics, San Diego, Calif., an affiliate of Bio-Wittaker, Walkersville, Md. The cytoplasmic free Ca^2+ concentration ([Ca^2+]i) was measured using the fluorescent Ca^2+ indicator fura-2 (Molecular Probes, Inc., Eugene, Oreg.). Suspension of fibroblasts in Hepes-Tyrode's buffer were loaded with fura-2 by incubation at 37° C. with 2 μM fura-2/acetoxymethyl ester for 45 minutes according to the method of Rasmussen et al., J. Biol. Chem. 268, 14322 (1993). The labeled fibroblasts were separated from excess probe by washing by centrifugation at 1000 rpm (180 xg). Aliquots of the labeled fibroblasts were transferred into a quartz cuvette with a magnetic stirrer, which was then placed in a thermostatically controlled chamber at 37° C. in a fluorescence spectrophotometer (Perkin-Elmer LS50B spectrofluorometer, Chicago, Ill.). Reagents, test peptide, and α-thrombin (0.25-2 nM), were sequentially added directly to the cuvette. The excitation wavelengths varied between 340 and 380 nm. Fluorescence was measured by recording emitted light at 510 nm as reported by Fisher et al., Mol Pharm. 35, 195 (1989). The minimum emission was determined on a solubilized fibroblast sample in the presence of 10 mM EDTA; maximum emission was determined on the same sample with 10 mM Ca^2+ added. The intrafibroblast free Ca^2+ concentration was calculated by the method of Grykiewicz et al., J. Biol. Chem. 260, 3440 (1985). The ratio of the fluorescence readings was calculated as R=340/380 nm and processed according to the equation [Ca^2+]i=KD((R−Rmin)/Rmax−R))(Sf2/Sb2) to determine the intrafibroblast free Ca^2+ concentration. The KD for fura-2 was assumed to be 224 nM. Rmax and Rmin are the maximum and minimum fluorescence ratios measured at the end of the experiment, respectively; Sf2 and Sb2 are the fluorescence values at 380 nm in the absence and presence of saturating [Ca^2+], respectively. The reaction was monitored for 3-5 minutes.
In general terms: A change in cytosolic calcium serves as a functional read-out for many receptors and channels.

The record followed here is patent US7879792B2, “Synthetic peptide inhibitors of thrombin and thrombin activation of protease activated receptors 1 and 4” (The Regents of the University of Michigan, priority 2005, dated 2011).

Where a SMILES comes first, the peptide text is derived from it.

Take `N=C(N)NCCC[C@@H](N)C(=O)N1[C@H](C(=O)N2CCC[C@H]2C(=O)NCC(=O)N[C@@H](Cc2ccccc2)C(N)=O)C[C@@H]2CCCC[C@@H]21` [rOicPGF, D-Arg-Oic-Pro-Gly-Phe, reference compound] (HELM PEPTIDE1{[dR].[O=C([C@@H]1C[C@@H]2CCCC[C@@H]2N1[*:1])[*:2]].P.G.F.[am]}$$$$V2.0): the half-life at 0.1 mg/ml in data set [1] (male, Sprague Dawley, intestinal homogenate, pH 6.5, 37° C., read-out: t1/2 (min) Intestinal Homogenate) is 40.3 min; in data set [2] (37° C., read-out: t1/2 (min) Intestinal Perfusate), 111 min; in data set [2] (read-out: t1/2 in intestinal perfusate (converted)), 120 min; in data set [3], 179 min. Moreover, the “stability in intestinal homogenate (FIG. 12)” value in data set [1] is “less stable”.
On to `Cc1ccc(C[C@H](NC(=O)[C@@H](C)NC(=O)[C@@H]2CCCN2C(=O)[C@@H]2C[C@@H]3CCCC[C@@H]3N2C(=O)[C@H](N)CCCNC(=N)N)C(N)=O)cc1` [rOicPaF(p-Me), D-Arg-Oic-Pro-D-Ala-Phe(p-Me)] (HELM PEPTIDE1{[dR].[O=C([C@@H]1C[C@@H]2CCCC[C@@H]2N1[*:1])[*:2]].P.[dA].[Cc1ccc(C[C@H](N[*:1])C(=O)[*:2])cc1].[am]}$$$$V2.0), for which the “alpha thrombin-induced calcium mobilization” value in data set [4] (0.00038 mM peptide) is “full recovery”. The figures for the “inhibition of thrombin-induced calcium mobilization” value in data set [4] (0.003 mM peptide) and in data set [4] (0.08 mM peptide) were 69% and 97%, respectively.
